Measurements reported in patent US12157730B2, “Heteroaryl derivative, method for producing same, and pharmaceutical composition comprising same as effective component” (VORONOI INC., priority 2019, dated 2024).

biological target: T1, Ba/F3 cell EGFR Exon20 ins NPH (Homo sapiens, UniProt P00533, INS773NPH); assay: Ba/F3 cell proliferation suppression, EGFR Exon20 ins NPH; format: cell-based; conditions: GI50 class; Ba/F3 cell line with NPH inserted at Exon20 of EGFR; 72 hours
T1 construct: expressed in transfected cells; host or cells: Ba/F3
Method in brief: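 Seed 3000–5000 cells/well; after 24 h add compound (12 conc., 0.3 nM–50 um final); incubate 72 h; add CellTiter-Glo, 10 min room temperature; read luminescence; GI50 from % growth vs control, triplicate.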

Question: With `C=CC(=O)Nc1cc(Nc2cc(N3OCC[C@@H]3c3c(F)ccc(F)c3F)ncn2)c(OC)cc1N1CCC(N2CCN(C3CC3)[C@@H](C)C2)CC1` [Example 167, N-(2-(4-((S)-4-cyclopropyl-3-methylpiperazine-1-yl)piperidine-1-yl)-4-methoxy-5-((6-((R)-3-(2,3,6-trifluorophenyl)isoxazolidine-2-yl)pyrimidine-4-yl)amino)phenyl)acrylamide] as the compound, how does the “Ba/F3 (NPH) Activity” value read?
Answer: A (GI50 < 50 nM)

Question: Which “Ba/F3 (NPH) Activity” value does the source give for `C=CC(=O)Nc1cc(Nc2cc(N3OCC[C@@H]3c3cc(F)ccc3F)ncn2)c(OC)cc1N1CC[C@H](N2CCOCC2)C1` [compound 302, N-(5-((6-((R)-3-(2,5-difluorophenyl)isoxazolidine-2-yl)pyrimidine-4-yl)amino)-4-methoxy-2-((S)-3-morpholinopyrolidine-1-yl)phenyl)acrylamide] here?
Answer: B (50 nM ≤ GI50 < 500 nM)

Question: For `C=CC(=O)Nc1cc(Nc2cc(N3OCC[C@H]3c3c(F)cccc3F)ncn2)c(OC)cc1N1CCC(N2CCN(C3CC3)CC2)CC1` [Example 129, N-(2-(4-(4-cyclopropylpiperazine-1-yl)piperidine-1-yl)-5-((6-((S)-3-(2,6-difluorophenyl)isoxazolidine-2-yl)pyrimidine-4-yl)amino)-4-methoxyphenyl) acrylamide], which “Ba/F3 (NPH) Activity” value is on record?
Answer: C (500 nM ≤ GI50 < 5000 nM)

Question: For `C=CC(=O)Nc1cc(Nc2cc(N3OCC[C@@H]3Cc3cccc(Cl)c3Cl)ncn2)c(OC)cc1N(C)CCN(C)C` [compound 982, N-(5-((6-((S)-3-(2,3-dichlorobenzyl)isoxazolidine-2-yl)pyrimidine-4-yl)amino)-2-((2-(dimethylamino)ethyl)(methyl)amino)-4-methoxyphenyl) acrylamide], which “Ba/F3 (NPH) Activity” value is on record?
Answer: A (GI50 < 50 nM)

Question: How did the “Ba/F3 (NPH) Activity” value turn out when `C=CC(=O)Nc1cc(Nc2cc(N3OCC[C@@H]3Cc3cccc(Cl)c3OC)ncn2)c(OC)cc1N1CCC(N2CCN(C3CC3)CC2)CC1` [compound 1054, N-(5-((6-((S)-3-(3-chloro-2-methoxybenzyl)isoxazolidine-2-yl)pyrimidine-4-yl)amino)-2-(4-(4-cyclopropylpiperazine-1-yl)piperidine-1-yl)-4-methoxyphenyl) acrylamide] was run?
Answer: A (GI50 < 50 nM)

Question: Which “Ba/F3 (NPH) Activity” value does the source give for `C=CC(=O)Nc1cc(Nc2cc(N3OCC[C@@H]3c3ccc(F)cc3F)ncn2)c(OC)cc1N1CCN(CC)CC1` [compound 351, N-(5-((6-((R)-3-(2,4-difluorophenyl)isoxazolidine-2-yl)pyrimidine-4-yl)amino)-2-(4-ethylpiperazine-1-yl)-4-methoxyphenyl) acrylamide] here?
Answer: A (GI50 < 50 nM)

Question: `C=CC(=O)Nc1cc(Nc2cc(N3OCC[C@@H]3c3ccc(F)c(F)c3)ncn2)c(OC)cc1N1CCC(N2CCN(C3CC3)CC2)CC1` [Example 161, N-(2-(4-(4-cyclopropylpiperazine-1-yl)piperidine-1-yl)-5-((6-((R)-3-(3,4-difluorophenyl)isoxazolidine-2-yl)pyrimidine-4-yl)amino)-4-methoxyphenyl) acrylamide] was tested. Which “Ba/F3 (NPH) Activity” value did it give?
Answer: A (GI50 < 50 nM)

Question: With “N-(5-((6-((R)-3-(4- chloro-3-fluorophenyl) isoxazolidine-2-yl) pyrimidine-4-yl)amino)- 4-methoxy-2-((R)-3- morpholinopyrolidine- 1-yl)phenyl)acrylamide [compound 419]” as the compound, how does the “Ba/F3 (NPH) Activity” value read?
Answer: A (GI50 < 50 nM)

Question: Which “Ba/F3 (NPH) Activity” value does the source give for `C=CC(=O)Nc1cc(Nc2cc(N3OCC[C@@H]3c3cccc4ccccc34)ncn2)c(OC)cc1N(C)CCN(C)C` [compound 440, N-(2-((2-(dimethylamino)ethyl) (methyl)amino)-4-methoxy-5-((6-((R)-3-(naphthalene-1-yl)isoxazolidine-2-yl)pyrimidine-4-yl)amino)phenyl)acrylamide] here?
Answer: A (GI50 < 50 nM)

Question: Which “Ba/F3 (NPH) Activity” value does the source give for `C=CC(=O)Nc1cc(Nc2cc(N3OCC[C@@H]3c3cccc4ccccc34)ncn2)c(OC)cc1N1CCC(N2CCN(C(C)C)CC2)CC1` [compound 490, N-(2-(4-(4-isopropylpiperazine-1-yl)piperidine-1-yl)-4-methoxy-5-((6-((R)-3-(naphthalene-1-yl)isoxazolidine-2-yl)pyrimidine-4-yl)amino)phenyl)acrylamide] here?
Answer: A (GI50 < 50 nM)

Question: For `C=CC(=O)Nc1cc(Nc2cc(N3OCC[C@@H]3c3ccc(Cl)cc3)ncn2)c(OC)cc1N1CCC(N2CC[C@@H](N(C)C)C2)CC1` [compound 783, N-(5-((6-((R)-3-(4-chlorophenyl)isoxazolidine-2-yl)pyrimidine-4-yl)amino)-2-(4-((R)-3-(dimethylamino)pyrolidine-1-yl)piperidine-1-yl)-4-methoxyphenyl) acrylamide], which “Ba/F3 (NPH) Activity” value is on record?
Answer: A (GI50 < 50 nM)

Question: For `COc1cc(OCCC(C)(C)OC)c(NC(=O)/C=C/CN(C)C)cc1Nc1cc(N2OCC[C@@H]2c2cc(F)cc(F)c2)ncn1` [compound 496, N-(5-((6-((R)-3-(3,5-difluorophenyl)isoxazolidine-2-yl)pyrimidine-4-yl)amino)-4-methoxy-2-(3-methoxy-3-methylbutoxy)phenyl)-(E)-4-(dimethylamino) but-2-enamide], which “Ba/F3 (NPH) Activity” value is on record?
Answer: C (500 nM ≤ GI50 < 5000 nM)

Question: `C=CC(=O)Nc1cc(Nc2cc(N3OCC[C@@H]3c3ccc(C)nc3)ncn2)c(OC)cc1N1CCN(C(C)=O)CC1` [Example 49, N-(2-(4-acetylpiperazine-1-yl)-4-methoxy-5-((6-((R)-3-(6-methylpyridine-3-yl)isoxazolidine-2-yl)pyrimidine-4-yl)amino)phenyl) acrylamide] was tested. Which “Ba/F3 (NPH) Activity” value did it give?
Answer: C (500 nM ≤ GI50 < 5000 nM)

Question: For `C=CC(=O)Nc1cc(Nc2cc(N3OCC[C@@H]3c3cccc(OC)c3)ncn2)c(OC)cc1N1CCC(N2C[C@@H](C)O[C@@H](C)C2)CC1` [compound 727, N-(2-(4-((2S,6R)-2,6-dimethylmorpholino)piperidine-1-yl)-4-methoxy-5-((6-((R)-3-(3-methoxyphenyl)isoxazolidine-2-yl)pyrimidine-4-yl)amino)phenyl)acrylamide], which “Ba/F3 (NPH) Activity” value is on record?
Answer: A (GI50 < 50 nM)

Question: Which “Ba/F3 (NPH) Activity” value does the source give for `C=CC(=O)Nc1cc(Nc2cc(N3OCC[C@@H]3c3cccc(Cl)c3C)ncn2)c(OC)cc1N1CCC(N2CCN(C)CC2)CC1` [compound 485, N-(5-((6-((R)-3-(3-chloro-2-methylphenyl)isoxazolidine-2-yl)pyrimidine-4-yl)amino)-4-methoxy-2-(4-(4-methylpiperazine-1-yl)piperidine-1-yl)phenyl) acrylamide] here?
Answer: A (GI50 < 50 nM)

Question: How did the “Ba/F3 (NPH) Activity” value turn out when `C=CC(=O)Nc1cc(Nc2cc(N3OCC[C@@H]3Cc3ccccn3)ncn2)c(OC)cc1N1CCC(N2CCN(C3CC3)CC2)CC1` [compound 1059, N-(2-(4-(4-cyclopropylpiperazine-1-yl)piperidine-1-yl)-4-methoxy-5-((6-((S)-3-(pyridine-2-ylmethyl)isoxazolidine-2-yl)pyrimidine-4-yl)amino)phenyl)acrylamide] was run?
Answer: A (GI50 < 50 nM)

Question: How did the “Ba/F3 (NPH) Activity” value turn out when `C=CC(=O)Nc1cc(Nc2cc(N3OCC[C@@H]3c3ccc(C)nc3)ncn2)c(OC)cc1N1CCC(N2C[C@H]3C[C@@H]2CN3C)CC1` [Example 234, N-(4-methoxy-2-(4-((1R,4R)-5-methyl-2,5-diazabicyclo[2.2.1]heptane-2-yl)piperidine-1-yl)-5-((6-((R)-3-(6-methylpyridine-3-yl)isoxazolidine-2-yl)pyrimidine-4-yl)amino)phenyl)acrylamide] was run?
Answer: C (500 nM ≤ GI50 < 5000 nM)

Question: `C=CC(=O)Nc1cc(Nc2cc(N3OCC[C@@H]3c3cccc(C#N)c3)ncn2)c(OC)cc1N1CCC(N2CCN(C3CC3)CC2)CC1` [Example 141, N-(5-((6-((R)-3-(3-cyanophenyl)isoxazolidine-2-yl)pyrimidine-4-yl)amino)-2-(4-(4-cyclopropylpiperazine-1-yl)piperidine-1-yl)-4-methoxyphenyl) acrylamide] was tested. Which “Ba/F3 (NPH) Activity” value did it give?
Answer: A (GI50 < 50 nM)

Question: How did the “Ba/F3 (NPH) Activity” value turn out when `C=CC(=O)Nc1cc(Nc2cc(N3OCC[C@@H]3Cc3cccc(F)c3C)ncn2)c(OC)cc1N1CC[C@@H](N(C)C)C1` [compound 1002, N-(2-((R)-3-(dimethylamino)pyrolidine-1-yl)-5-((6-((S)-3-(3-fluoro-2-methylbenzyl)isoxazolidine-2-yl)pyrimidine-4-yl)amino)-4-methoxyphenyl) acrylamide] was run?
Answer: A (GI50 < 50 nM)

Question: With `C=CC(=O)Nc1cc(Nc2cc(N3OCC[C@@H]3Cc3cccc(Cl)c3Cl)ncn2)c(OC)cc1N1CCC(N2CCOCC2)CC1` [compound 979, N-(5-((6-((S)-3-(2,3-dichlorobenzyl)isoxazolidine-2-yl)pyrimidine-4-yl)amino)-4-methoxy-2-(4-morpholinopiperidine-1-yl)phenyl)acrylamide] as the compound, how does the “Ba/F3 (NPH) Activity” value read?
Answer: A (GI50 < 50 nM)

Question: For `C=CC(=O)Nc1cc(Nc2cc(N3OCC[C@@H]3c3ccc(Cl)c(Cl)c3)ncn2)c(OC)cc1N1C[C@H]2C[C@@H]1CN2CC` [compound 676, N-(5-((6-((R)-3-(3,4-dichlorophenyl)isoxazolidine-2-yl)pyrimidine-4-yl)amino)-2-((1R,4R)-5-ethyl-2,5-diazabicyclo[2.2.1]heptane-2-yl)-4-methoxyphenyl) acrylamide], which “Ba/F3 (NPH) Activity” value is on record?
Answer: A (GI50 < 50 nM)

Question: How did the “Ba/F3 (NPH) Activity” value turn out when `C=CC(=O)Nc1cc(Nc2cc(N3OCC[C@@H]3c3ccc(Cl)cc3)ncn2)c(OC)cc1N1CCC(N2C[C@@H](C)O[C@@H](C)C2)CC1` [compound 868, N-(5-((6-((R)-3-(4-chlorophenyl)isoxazolidine-2-yl)pyrimidine-4-yl)amino)-2-(4-((2S,6R)-2,6-dimethylmorpholino)piperidine-1-yl)-4-methoxyphenyl) acrylamide] was run?
Answer: A (GI50 < 50 nM)

Question: With `C=CC(=O)Nc1cc(Nc2cc(N3OCC[C@@H]3c3ccc(Cl)cc3F)ncn2)c(OC)cc1N1CCC(N(C)C)CC1` [compound 403, N-(5-((6-((R)-3-(4-chloro-2-fluorophenyl)isoxazolidine-2-yl)pyrimidine-4-yl)amino)-2-(4-(dimethylamino)piperidine-1-yl)-4-methoxyphenyl) acrylamide] as the compound, how does the “Ba/F3 (NPH) Activity” value read?
Answer: A (GI50 < 50 nM)
